In patent US8163728B2, “Pyrazoles” (Hoffmann-La Roche Inc., priority 2009, dated 2012) one finds Ki data, which are given here for 31 compounds.

This test deals with T1, GABA A α5 (Homo sapiens, UniProt P18507+P31644).
T1 construct: expressed in transfected cells; host or cells: HEK293 cells, transiently transfected; membranes prepared from cell pellets
Nature of the test: [3H]flumazenil competition binding, human GABA A α5β3γ2 receptors in HEK293 cell membranes. The conditions noted are these: human receptor α5β3γ2 transiently transfected in HEK293; 0.5 nM [3H]flumazenil; 1 hour at 4° C.; means of two determinations; read-out: hKi GABA A α5. The method, boiled down: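 Competition with [3H]flumazenil for binding to membranes of HEK293 cells transiently expressing human α5β3γ2, in Krebs-tris buffer pH 7.5. Incubated to equilibrium 1 h at 4 °C, filtered and scintillation-counted; Ki values are means of two determinations.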

Take `Cc1onc(-c2ccc(F)cc2)c1CNc1cc(C(=O)NCC(F)(F)F)n(C)n1` [Example 146, 5-{[3-(4-Fluoro-phenyl)-5-methyl-isoxazol-4-ylmethyl]-amino}-2-methyl-2H-pyrazole-3-carboxylic acid (2,2,2-trifluoro-ethyl)-amide]: the Ki worked out at 15.2 nM.

As to `Cc1onc(-c2ccc(F)cc2)c1/C=C/c1cc(C(=O)NC(C)(C)CO)[nH]n1` [Example 138, 5-{(E)-2-[3-(4-Fluoro-phenyl)-5-methyl-isoxazol-4-yl]vinyl}-2H-pyrazole-3-carboxylic acid (2-hydroxy-1,1-dimethyl-ethyl)-amide], the Ki is 11 nM.

`Cc1onc(-c2ccc(F)cc2)c1/C=C/c1cc(C(=O)NC(C)C)[nH]n1` [Example 134, 5-{(E)-2-[3-(4-Fluoro-phenyl)-5-methyl-isoxazol-4-yl]-vinyl}-2H-pyrazole-3-carboxylic acid isopropylamide]: the Ki is 5.2 nM.

In the case of `Cc1onc(-c2ccccn2)c1COc1cc(C(=O)NC2CCOCC2)n(C)n1` [Example 79, 2-Methyl-5-(5-methyl-3-pyridin-2-yl-isoxazol-4-ylmethoxy)-2H-pyrazole-3-carboxylic acid (tetrahydro-pyran-4-yl)-amide], the Ki amounted to 6.5 nM.

`Cn1nc(OCc2c(-c3ccc(Cl)cc3)noc2CO)cc1C(=O)NC1CCOC1` (racemic) [Example 110, Rac-5-[3-(4-Chloro-phenyl)-5-hydroxymethyl-isoxazol-4-ylmethoxy]-2-methyl-2H-pyrazole-3-carboxylic acid (tetrahydro-furan-3-yl)-amide]: the Ki is 2.7 nM.

As to `Cc1onc(-c2ccc(F)cn2)c1COc1cc(C(=O)NN2CCOCC2)[nH]n1` [Example 23, 5-[3-(5-Fluoro-pyridin-2-yl)-5-methyl-isoxazol-4-ylmethoxy]-2H-pyrazole-3-carboxylic acid morpholin-4-ylamide], the Ki was 1.9 nM.

For the compound `Cc1onc(-c2ccccn2)c1COc1cc(C(=O)NC2CCOCC2)nn1C` [Example 116, 1-Methyl-5-(5-methyl-3-pyridin-2-yl-isoxazol-4-ylmethoxy)-1H-pyrazole-3-carboxylic acid (tetrahydro-pyran-4-yl)-amide], the Ki was 18.2 nM.

In the case of `Cn1nc(OCc2c(-c3ccc(Cl)cc3)noc2CO)cc1C(=O)NC(C)(C)CO` [Example 107, 5-[3-(4-Chloro-phenyl)-5-hydroxymethyl-isoxazol-4-ylmethoxy]-2-methyl-2H-pyrazole-3-carboxylic acid (2-hydroxy-1,1-dimethyl-ethyl)-amide], the Ki worked out at 17.8 nM.

For `CCCCc1noc(C)c1COc1cc(C(=O)NCCO)n(C)n1` [Example 85, 5-(3-Butyl-5-methyl-isoxazol-4-ylmethoxy)-2-methyl-2H-pyrazole-3-carboxylic acid (2-hydroxy-ethyl)-amide], the Ki worked out at 27.6 nM.

With `Cc1onc(-c2ccc(F)cn2)c1COc1cc(C(=O)N[C@@H](C)CO)nn1C` [Example 117, 5-[3-(5-Fluoro-pyridin-2-yl)-5-methyl-isoxazol-4-ylmethoxy]-1-methyl-1H-pyrazole-3-carboxylic acid ((S)-2-hydroxy-1-methyl-ethyl)-amide], the Ki was 6.8 nM.

Regarding `Cc1onc(-c2ccc(F)cn2)c1COc1cc(C(=O)NCC(F)(F)F)[nH]n1` [Example 17, 5-[3-(5-Fluoro-pyridin-2-yl)-5-methyl-isoxazol-4-ylmethoxy]-2H-pyrazole-3-carboxylic acid (2,2,2-trifluoro-ethyl)-amide], the Ki was determined as 1.2 nM.

On to `CCCCc1noc(C)c1COc1cc(C(=O)N2CCOCC2)[nH]n1` [Example 36, [5-(3-Butyl-5-methyl-isoxazol-4-ylmethoxy)-2H-pyrazol-3-yl]morpholin-4-yl-methanone], for which the Ki turned out to be 53.5 nM.

Take `Cc1onc(-c2ccc(F)cn2)c1COc1cc(C(=O)NN(C)C)[nH]n1` [Example 22, 5-[3-(5-Fluoro-pyridin-2-yl)-5-methyl-isoxazol-4-ylmethoxy]-2H-pyrazole-3-carboxylic acid N′,N′-dimethyl-hydrazide]: the Ki stood at 6.7 nM.

As to `Cc1onc(-c2ccc(F)cn2)c1COc1cc(C(=O)NC(C)C)[nH]n1` [Example 21, 5-[3-(5-Fluoro-pyridin-2-yl)-5-methyl-isoxazol-4-ylmethoxy]-2H-pyrazole-3-carboxylic acid isopropylamide], the Ki was 2.5 nM.

For `Cc1onc(-c2ccccn2)c1COc1cc(C(=O)NC(C)C)n(C)n1` [Example 78, 2-Methyl-5-(5-methyl-3-pyridin-2-yl-isoxazol-4-ylmethoxy)-2H-pyrazole-3-carboxylic acid isopropylamide], the Ki came to 30.2 nM.

For the compound `Cc1onc(-c2ccc(F)cc2)c1/C=C/c1cc(C(=O)N2CC3(COC3)C2)[nH]n1` [Example 137, (5-{(E)-2-[3-(4-Fluoro-phenyl)-5-methyl-isoxazol-4-yl]vinyl}-2H-pyrazol-3-yl)-(2-oxa-6-aza-spiro[3.3]hept-6-yl)-methanone], the Ki was determined as 1.4 nM.

Take `Cc1onc(-c2ccc(F)cc2)c1COc1cc(C(=O)NC2(C)COC2)n(C)n1` [Example 58, 5-[3-(4-Fluoro-phenyl)-5-methyl-isoxazol-4-ylmethoxy]-2-methyl-2H-pyrazole-3-carboxylic acid (3-methyl-oxetan-3-yl)-amide]: the Ki was 4.3 nM.

In the case of `Cc1onc(-c2ccc(F)cc2)c1COc1cc(C(=O)NN2CCOCC2)[nH]n1` [Example 8, 5-[3-(4-Fluoro-phenyl)-5-methyl-isoxazol-4-ylmethoxy]-2H-pyrazole-3-carboxylic acid morpholin-4-ylamide], the Ki is 1.8 nM.

For `CC(NC(=O)c1cc(OCc2c(-c3ccc(Cl)cc3)noc2CO)nn1C)C(F)(F)F` (stereo in doubt) [Example 106, 5-[3-(4-Chloro-phenyl)-5-hydroxymethyl-isoxazol-4-ylmethoxy]-2-methyl-2H-pyrazole-3-carboxylic acid ((S)-2,2,2-trifluoro-1-methyl-ethyl)-amide], the Ki was determined as 8.1 nM.

For the compound `Cc1onc(-c2ccc(F)cc2)c1COc1cc(C(N)=O)n(C)n1` [Example 54, 5-[3-(4-Fluoro-phenyl)-5-methyl-isoxazol-4-ylmethoxy]-2-methyl-2H-pyrazole-3-carboxylic acid amide], the Ki was found to be 12 nM.

Take `Cn1nc(OCc2c(-c3ccc(F)cc3)noc2CO)cc1C(N)=O` [Example 93, 5-[3-(4-Fluoro-phenyl)-5-hydroxymethyl-isoxazol-4-ylmethoxy]-2-methyl-2H-pyrazole-3-carboxylic acid amide]: the Ki was found to be 14.7 nM.

`Cc1onc(-c2ccc(F)cn2)c1COc1cc(C(=O)NC2CCOCC2)n(C)n1` [Example 84, 5-[3-(5-Fluoro-pyridin-2-yl)-5-methyl-isoxazol-4-ylmethoxy]-2-methyl-2H-pyrazole-3-carboxylic acid (tetrahydro-pyran-4-yl)-amide]: the Ki amounted to 3.5 nM.

Regarding `Cc1onc(-c2ccccc2)c1COc1cc(C(=O)NC2CCOCC2)n(C)n1` [Example 44, 2-Methyl-5-(5-methyl-3-phenyl-isoxazol-4-ylmethoxy)-2H-pyrazole-3-carboxylic acid (tetra-hydro-pyran-4-yl)-amide], the Ki was 3.1 nM.

As to `Cc1onc(-c2ccc(F)cc2)c1COc1cc(C(=O)NN2CCCC2)[nH]n1` [Example 10, 5-[3-(4-Fluoro-phenyl)-5-methyl-isoxazol-4-ylmethoxy]-2H-pyrazole-3-carboxylic acid pyrrolidin-1-ylamide], the Ki was 3.8 nM.

`CCCCc1noc(C)c1COc1cc(C(=O)NC(CO)CO)[nH]n1` [Example 29, 5-(3-Butyl-5-methyl-isoxazol-4-ylmethoxy)-2H-pyrazole-3-carboxylic acid (2-hydroxy-1-hydroxymethyl-ethyl)-amide]: the Ki worked out at 10.4 nM.

On to `CCCCc1noc(C)c1COc1cc(C(=O)NC2CCOC2)n(C)n1` (racemic) [Example 89, Rac-5-(3-Butyl-5-methyl-isoxazol-4-ylmethoxy)-2-methyl-2H-pyrazole-3-carboxylic acid (tetrahydro-furan-3-yl)-amide], for which the Ki worked out at 20.3 nM.

Take `Cc1onc(-c2ccc(F)cn2)c1COc1cc(C(=O)NCCO)[nH]n1` [Example 20, 5-[3-(5-Fluoro-pyridin-2-yl)-5-methyl-isoxazol-4-ylmethoxy]-2H-pyrazole-3-carboxylic acid (2-hydroxy-ethyl)-amide]: the Ki worked out at 4 nM.

For `Cc1onc(-c2ccc(F)cc2)c1COc1cc(C(=O)NCC2(O)CC2)n(C)n1` [Example 61, 5-[3-(4-Fluoro-phenyl)-5-methyl-isoxazol-4-ylmethoxy]-2-methyl-2H-pyrazole-3-carboxylic acid (1-hydroxy-cyclopropylmethyl)-amide], the Ki worked out at 7.4 nM.

Regarding `Cn1nc(OCc2c(-c3ccc(Cl)cc3)noc2CO)cc1C(N)=O` [Example 102, 5-[3-(4-Chloro-phenyl)-5-hydroxymethyl-isoxazol-4-ylmethoxy]-2-methyl-2H-pyrazole-3-carboxylic acid amide], the Ki is 12.6 nM.

Consider `Cn1nc(OCc2c(-c3ccc(F)cc3)noc2CO)cc1C(=O)NC1(C)COC1` (racemic) [Example 98, Rac-5-[3-(4-fluoro-phenyl)-5-hydroxymethyl-isoxazol-4-ylmethoxy]-2-methyl-2H-pyrazole-3-carboxylic acid (3-methyl-oxetan-3-yl)-amide], for which the Ki turned out to be 4.9 nM.

In the case of `CCCCc1noc(C)c1COc1cc(C(=O)NC2CCOCC2)n(C)n1` [Example 88, 5-(3-Butyl-5-methyl-isoxazol-4-ylmethoxy)-2-methyl-2H-pyrazole-3-carboxylic acid (tetra-hydro-pyran-4-yl)-amide], the Ki was found to be 8.7 nM.
